In publication PMC7439413 (Science Advances, 2020):

Assays:
[1] = test system: GRwt LBD-ligand complex / TIF2 peptide; assay: SPR: binding of GRwt-ligand complexes to immobilized TIF2 peptide; set-up: species or system human; details: stated for both TIF2 and PRGC1
[2] = test system: GRF602S-ligand-TIF2 complex; assay: CPMG relaxation dispersion NMR, GRF602S-ligand-TIF2; set-up: species or system human; details: GRF602S-dex-TIF2; 13C CPMG, 14.1 and 18.8 T, 298 K
[3] = test system: GRwt-ligand-PRGC1 complex; assay: CPMG relaxation dispersion NMR, GRwt-ligand-PRGC1; set-up: species or system human; details: GRwt-dex-PRGC1; 13C CPMG, 18.8 T, 298 K
[4] = target: T1, human GR (Homo sapiens, UniProt P04150); assay: GR reporter gene assay; type: cell-based; details: transactivation reporter gene assay, comparison among steroid ligands
T1 sequence (P04150 1-777): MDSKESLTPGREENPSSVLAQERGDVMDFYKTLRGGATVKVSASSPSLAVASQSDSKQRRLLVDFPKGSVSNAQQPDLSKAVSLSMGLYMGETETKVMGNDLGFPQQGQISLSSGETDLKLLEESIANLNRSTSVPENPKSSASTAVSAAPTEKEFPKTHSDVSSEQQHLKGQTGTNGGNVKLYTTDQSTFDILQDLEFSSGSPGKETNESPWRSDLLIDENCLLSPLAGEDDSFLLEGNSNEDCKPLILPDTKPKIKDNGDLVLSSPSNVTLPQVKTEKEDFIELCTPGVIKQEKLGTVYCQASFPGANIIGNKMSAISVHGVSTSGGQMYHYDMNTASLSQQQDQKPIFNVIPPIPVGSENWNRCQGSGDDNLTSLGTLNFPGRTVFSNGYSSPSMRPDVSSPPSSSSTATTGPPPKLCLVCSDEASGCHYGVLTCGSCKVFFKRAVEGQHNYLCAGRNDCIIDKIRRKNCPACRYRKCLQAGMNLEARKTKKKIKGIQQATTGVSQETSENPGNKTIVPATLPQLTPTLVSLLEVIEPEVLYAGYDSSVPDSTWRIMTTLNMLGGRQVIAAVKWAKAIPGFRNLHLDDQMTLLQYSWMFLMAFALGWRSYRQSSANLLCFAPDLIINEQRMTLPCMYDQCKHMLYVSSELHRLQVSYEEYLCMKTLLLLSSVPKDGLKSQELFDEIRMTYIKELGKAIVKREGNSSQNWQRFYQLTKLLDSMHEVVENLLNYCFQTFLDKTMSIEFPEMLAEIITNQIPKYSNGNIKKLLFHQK

[5] = test system: GRwt-ligand-TIF2 complex; assay: CPMG relaxation dispersion NMR, GRwt-ligand-TIF2; set-up: species or system human; details: M752 13C CPMG, semiquantitative interpretation, 298 K
[6] = target: GRwt LBD-ligand complex / PRGC1 peptide (Homo sapiens, UniProt P04150); assay: SPR: binding of GRwt-ligand complexes to immobilized PRGC1 peptide; details: both GR constructs (GRwt and GRF602S), irrespective of ligand

## C[C@]12CCC(=O)C=C1CC[C@@H]1[C@@H]2[C@@H](O)C[C@@]2(C)[C@H]1CC[C@]2(O)C(=O)CO [cortisol]
[1]
  coregulator-binding affinity rank of GRwt-ligand complex in words: weakest affinity in both cases

## C[C@@H]1C[C@H]2[C@@H]3CCC4=CC(=O)C=C[C@]4(C)[C@@]3(F)[C@@H](O)C[C@]2(C)[C@@]1(O)C(=O)CO [dex, dexamethasone]
[2]
  M565 relaxation dispersion in words: shows relaxation dispersion in the GRF602S-dex-TIF2 complex, albeit of much lower amplitude
  M752 relaxation dispersion in words: marked relaxation dispersion profile
[3]
  M565 relaxation dispersion in words: does not show any dispersion

## C[C@]12C=CC(=O)C=C1CC[C@@H]1[C@@H]2[C@@H](O)C[C@@]2(C)[C@H]1C[C@H]1O[C@@H](C3CCCCC3)O[C@]12C(=O)CO [dibC, desisobutyryl-ciclesonide]
[1]
  coregulator-binding affinity rank of GRwt-ligand complex in words: highest affinity for coregulator peptides
[4]
  Agonist potency/efficacy in words: partial agonist, dibC binds GR with high potency
[5]
  population ratio of helix 12 conformations, pm/pM: 0.1

## PPQEAEEPSLLKKLLLAPANT [PRGC1]
[6]
  affinity of GR constructs for coregulator in words: higher affinity for PRGC1 than for TIF2
